Experimental data from patent publication US4122199A, “Amides of pyrrolidinoethylamine which can be used in treatment of coughs” (Pierre Fabre S.A., priority 1976, dated 1978).
Structures can show the parent of a compound that is named as a salt. Where two headings read alike, the source gives them in different places.

Experiments:
[1] = tested on: guinea pig; experiment: Takagi's technique: coughing by mechanical stimulation of the tracheal bifurcation in the unanesthetized guinea pig; format: in vivo; conditions: 50 mg/kg i.p.; for Cough rating, m = average of the ratings, after treatment: 1 heavy, 0.5 light, 0 no cough
Experimental: A second method using a different type of stimulation of coughs made it possible to note, as compared with codeine, the antitussive properties of the main components claimed.
The technique employed is derived from Takagi's technique, and consists in causing coughing by mechanical stimulation of the tracheal bifurcation in the unanesthetized guinea pig.
The cough is evaluated by the research worker in accordance with the following scale:
The products are administered intraperitoneally and the stimulation is effected 10 and 20 minutes after the injection.

[2] = Solubility characteristics; format: physicochemical; conditions: for Solubility in water / solubility: water
[3] = tested on: micro-organisms; experiment: Bactericidal action (subculture of the negative tubes); format: cell-based; conditions: at concentrations of 1 g percent
Experimental: (§1) The determination of fungistatic bacteriostatic properties was carried out by two methods on four strains:
(§2) Halved serial dilutions are formed in a hemoylsis tube, in each case to a volume of 1 ml; each dilution is inoculated with 10^6 micro-organisms per ml. After 48 hours in the oven, the minimum inhibitory concentration is determined. A subculture of the negative tubes (bacteriostatic), makes it possible to note the bactericidal concentration.

[4] = tested on: guinea pigs; experiment: Citric acid aerosol method on guinea pigs (antitussive); format: in vivo; conditions: for % decrease in no. coughs in 15 mins.: orally, citric acid aerosol; for change in vivo at 50 mg/kg: Cavia porcellus, ip, 0.25 h, 50 mg/kg i.p., 20 minutes before 20% citric acid aerosol, read-out: % reduction of no. of coughs in 15 minutes
Experimental: The animals were subjected to a 20% citric acid aerosol for 15 minutes.
The coughs were recorded by a microphone.
The products were administered intraperitoneally 20 minutes before the exposure to the aerosol.
Some derivatives were also tested orally.

[5] = tested on: Pseudomonas aeruginosa; experiment: Fungistatic/bacteriostatic effect, Pseudomonas aeruginosa; format: cell-based; conditions: compared with S. aureus and E. coli
Experimental: as §1, §2

[6] = tested on: Candida albicans; experiment: Fungistatic/bacteriostatic effect, Candida albicans; format: cell-based; conditions: compared with S. aureus and E. coli
Experimental: as §1, §2

[7] = tested on: mice; experiment: in vivo; conditions: isotonic aqueous solution
Experimental: (§3) It is determined on mice, the products being administered orally, intraperitoneally, and intraveneously in isotonic aqueous solution.

[8] = in vivo; conditions: mouse, in vivo, mice, isotonic aqueous solution
Experimental: as §3

[9] = tested on: mice; experiment: Antalgic properties: decrease in contortions caused by phenyl benzoquinone, in mice; format: in vivo; conditions: 150 mg/kg by mouth
Experimental: The antalgic properties with respect to a decrease in contortions caused by phenyl benzoquinone, as measured in mice, are very clear from the 150 mg/kg by mouth in the case of F 1534 (40% decrease), F 1539 (75% decrease), and F 1541 (60% decrease).

[10] = Local anesthesia activity; conditions: compared with procaine
[11] = iv, intravenous, read-out: DL 50 intravenous
[12] = ip, intraperitoneal, read-out: DL 50 intraperitoneal

SMILES: COc1ccc2c3c1O[C@H]1[C@@H](O)C=C[C@H]4[C@@H](C2)N(C)CC[C@@]341 [CODEINE, codeine, reference compound]
- % variation of cough rating ([1]; t + 10 mn): -22%
- Cough rating, m = average of the ratings, after treatment ([1]; t + 10 mn): 0,75
- % variation of cough rating ([1]; t + 20 mn): -30%
- Cough rating, m = average of the ratings, after treatment ([1]; t + 20 mn): 0,67

SMILES: Cc1cc(Br)cc(C(=O)NCCN2CCCC2)c1O [Example 9, N(2'-pyrrolidino-ethyl)-5-bromo-3-methyl-salicylamide hydrochloride]
- Solubility in ethanol ([2]; % soluble): 3%
- Solubility in ether ([2]; in words): insoluble
- Solubility in propylene glycol ([2]; % soluble): 7%
- Solubility in water ([2]; in words): very soluble

SMILES: O=C(NCCN1CCCC1)c1cc2ccccc2oc1=O [Example 14, N(2'-pyrrolidino-ethyl)-3-coumarin-carboxamide hydrochloride]
- Solubility in ethanol ([2]; % soluble): 4%
- Solubility in propylene glycol ([2]; % soluble): 7%
- Solubility in water ([2]; in words): very soluble

SMILES: O=C(NCCN1CCCC1)C(c1ccccc1)c1ccccc1 [F 1459, N(2'-pyrrolidino-ethyl)-α,α-diphenyl acetamide hydrochloride]
- bactericidal action [3]: real and significant
- % variation of cough rating ([1]; t + 10 mn): -32%
- Cough rating, m = average of the ratings, after treatment ([1]; t + 10 mn): 0,67
- % variation of cough rating ([1]; t + 20 mn): -66%
- Cough rating, m = average of the ratings, after treatment ([1]; t + 20 mn): 0,33
- % decrease in no. coughs in 15 mins. ([4]; 50 mg/kg, hydrochloride): -31
- effect on Pseudomonas aeruginosa [5]: more moderate but significant effect
- Solubility in ethanol ([2]; % soluble): 5%
- Solubility in propylene glycol ([2]; % soluble): 3%
- solubility ([2]; % soluble): 250 mg/mL
- effect on Candida albicans [6]: more moderate but significant effect
- DL 50 oral ([7]; hydrochloride): 562 mg/kg
- LD50 [8, 11]: 48 mg/kg

SMILES: CCOC(C(=O)NCCN1CCCC1)(c1ccccc1)c1ccccc1 [F 1460, N(2-pyrrolidino-ethyl)-α,α-diphenyl-α-ethoxy-acetamide hydrochloride]
- Solubility in ethanol ([2]; % soluble): 4%
- Solubility in ether ([2]; in words): insoluble
- solubility ([2]; % soluble): 10 mg/mL
- LD50 [8, 12]: 178 mg/kg
- LD50 [8, 11]: 40 mg/kg
- LD50 ([8]; po, oral, read-out: DL 50 oral): 750 mg/kg

SMILES: O=C(NCCN1CCCC1)N1c2ccccc2Sc2ccccc21 [F 1461, N(2'-pyrrolidino-ethyl)-10-phenothiazine carboxamide hydrochloride]
- % variation of cough rating ([1]; t + 10 mn): -35%
- Cough rating, m = average of the ratings, after treatment ([1]; t + 10 mn): 0,54
- % variation of cough rating ([1]; t + 20 mn): -55%
- Cough rating, m = average of the ratings, after treatment ([1]; t + 20 mn): 0,37
- % decrease in no. coughs in 15 mins. ([4]; 50 mg/kg): -12
- % decrease in no. coughs in 15 mins. ([4]; 100 mg/kg): -25
- Solubility in N-methyl pyrrolidone ([2]; N-methyl pyrrolidone, % soluble): 10%
- Solubility in ethanol ([2]; % soluble): 10%
- Solubility in propylene glycol ([2]; % soluble): 10%
- solubility ([2]; % soluble): 100 mg/mL
- LD50 [8, 12]: 178 mg/kg
- LD50 [8, 11]: 26 mg/kg
- LD50 ([8]; po, oral, read-out: DL 50 oral): 560 mg/kg

SMILES: C=CCOc1c(C)cc(Br)cc1C(=O)NCCN1CCCC1 [F 1479, N(2'-pyrrolidino-ethyl)-2-allyloxy-5-bromo-3-methyl benzamide hydrochloride]
- Solubility in water ([2]; in words): very soluble

SMILES: O=C(NCCN1CCCC1)C1c2ccccc2-c2ccccc21 [F 1532, N(2'-pyrrolidino-ethyl)-9-fluoroene-carboxamide hydrochloride]
- bactericidal action [3]: real and significant
- effect on Pseudomonas aeruginosa [5]: more moderate but significant effect
- Solubility in ethanol ([2]; in words): very soluble
- Solubility in propylene glycol ([2]; in words): very soluble
- Solubility in water ([2]; in words): very soluble
- effect on Candida albicans [6]: more moderate but significant effect
- LD50 [8, 12]: 75 mg/kg
- LD50 ([8]; po, oral, read-out: DL 50 oral): 178 mg/kg

SMILES: O=C(NCCN1CCCC1)C(c1ccccc1)N1CCCCC1 (centres unmarked) [F 1533, N(2'-pyrrolidino-ethyl)phenyl piperidino-acetamide]
- bactericidal action [3]: real and significant
- change in vivo at 50 mg/kg [4]: -7%
- effect on Pseudomonas aeruginosa [5]: more moderate but significant effect
- Solubility in ethanol ([2]; in words): Very soluble
- Solubility in water ([2]; in words): insoluble
- effect on Candida albicans [6]: more moderate but significant effect
- LD50 [8, 12]: 178 mg/kg
- LD50 ([8]; po, oral, read-out: DL 50 oral): 750 mg/kg

SMILES: O=C(NCCN1CCCC1)C1c2ccccc2Oc2ccccc21 [F 1534, N(2'-pyrrolidino-ethyl)-9-xanthene carboxamide hydrochloride]
- bactericidal action [3]: real and significant
- effect on Pseudomonas aeruginosa [5]: more moderate but significant effect
- Solubility in ethanol ([2]; % soluble): 10%
- Solubility in propylene glycol ([2]; % soluble): 10%
- Solubility in water ([2]; in words): very soluble
- decrease in contortions caused by phenyl benzoquinone [9]: 40%
- effect on Candida albicans [6]: more moderate but significant effect
- LD50 [8, 12]: 178 mg/kg
- LD50 ([8]; po, oral, read-out: DL 50 oral): 750 mg/kg
- local anesthesia activity [10]: high order of local anesthesia activity comparable to that of procaine

SMILES: O=C(NCCN1CCCC1)C(O)(c1ccccc1)c1ccccc1 [F 1535, N(2'-pyrrolidino-ethyl)-α,α-diphenyl-hydroxy-acetamide hydrochloride]
- Solubility in water ([2]; in words): very soluble
- LD50 [8, 12]: 237 mg/kg
- LD50 ([8]; oral, read-out: DL 50 oral): 562 mg/kg
- local anesthesia activity [10]: high order of local anesthesia activity comparable to that of procaine

SMILES: O=C(O)c1ccccc1C(=O)NCCN1CCCC1 [F 1537, N(2'-pyrrolidino-ethyl)-2-carboxy-benzamide]
- change in vivo at 50 mg/kg [4]: -8%
- Solubility in ethanol ([2]; in words): very soluble
- Solubility in propylene glycol ([2]; in words): very soluble
- Solubility in water ([2]; in words): very soluble
- LD50 [8, 12]: 500 mg/kg
- LD50 ([8]; po, oral, read-out: DL 50 oral): 1000 mg/kg

SMILES: COc1cc(C(=O)NCCN2CCCC2)cc(OC)c1OC [F 1538, N(2'-pyrrolidino-ethyl)-3-4-5-trimethoxy-benzamide hydrochloride]
- change in vivo at 50 mg/kg [4]: -1%
- Solubility in ethanol ([2]; in words): soluble
- Solubility in propylene glycol ([2]; in words): soluble
- Solubility in water ([2]; in words): soluble
- LD50 [8, 12]: 300 mg/kg
- LD50 ([8]; po, oral, read-out: DL 50 oral): 562 mg/kg

SMILES: O=C(COc1ccc(Cl)cc1)NCCN1CCCC1 [F 1539, N(2'-pyrrolidino-ethyl)-4-chloro-phenoxy-acetamide hydrochloride]
- Solubility in ethanol ([2]; in words): soluble
- Solubility in propylene glycol ([2]; in words): soluble
- Solubility in water ([2]; in words): soluble
- decrease in contortions caused by phenyl benzoquinone [9]: 75%
- LD50 [8, 12]: 178 mg/kg
- LD50 ([8]; po, oral, read-out: DL 50 oral): 1000 mg/kg

SMILES: CC(C)(Oc1ccccc1)C(=O)NCCN1CCCC1 [F 1540, N(2'-pyrrolidino-ethyl)phenoxy-isobutyramide hydrochloride]
- Solubility in ethanol ([2]; in words): soluble
- Solubility in propylene glycol ([2]; in words): soluble
- Solubility in water ([2]; in words): soluble
- LD50 [8, 12]: 237 mg/kg
- LD50 ([8]; po, oral, read-out: DL 50 oral): 1000 mg/kg

SMILES: CC(C)(Oc1ccc(Cl)cc1)C(=O)NCCN1CCCC1 [F 1541, N(2'-pyrrolidino-ethyl)-4-chloro-phenoxy-isobutyramide hydrochloride]
- Solubility in ethanol ([2]; in words): Soluble
- Solubility in propylene glycol ([2]; in words): Soluble
- Solubility in water ([2]; in words): Soluble
- decrease in contortions caused by phenyl benzoquinone [9]: 60%
- LD50 [8, 12]: 178 mg/kg
- LD50 ([8]; po, oral, read-out: DL 50 oral): 562 mg/kg
- local anesthesia activity [10]: high order of local anesthesia activity comparable to that of procaine

SMILES: O=C(C=Cc1ccccc1)NCCN1CCCC1 [F 1542, N(2'-pyrrolidino-ethyl)cinnamide, HCl]
- change in vivo at 50 mg/kg [4]: -19.5%
- Solubility in ethanol ([2]; in words): very soluble
- Solubility in propylene glycol ([2]; in words): very soluble
- Solubility in water ([2]; in words): very soluble
- LD50 [8, 12]: 178 mg/kg
- LD50 ([8]; po, oral, read-out: DL 50 oral): 1000 mg/kg

SMILES: O=C(NCCN1CCCC1)C(c1ccccc1)c1ccccc1 [F 1629, N(2-pyrrolidino-ethyl)-α,α-diphenyl-acetamide pamoate]
- % decrease in no. coughs in 15 mins. ([4]; 50 mg/kg): -30
- % decrease in no. coughs in 15 mins. ([4]; 100 mg/kg): -50
- Solubility in alcohol ([2]; in words): Insoluble
- Solubility in dimethyl acetamide ([2]; in words): Soluble
- Solubility in methyl pyrrolidone ([2]; in words): Soluble
- Solubility in water ([2]; in words): Insoluble
- DL 50 intraperitoneal [7]: 750 mg/kg
- DL 50 oral [7]: 2000 mg/kg

SMILES: O=C(NCCN1CCCC1)C(c1ccccc1)c1ccccc1 [F 1630, N(2-pyrrolidino-ethyl)-α,α-diphenyl-acetamide palmitate]
- Solubility in alcohol ([2]; in words): Poorly soluble
- Solubility in dimethyl acetamide ([2]; in words): Poorly soluble
- Solubility in methyl pyrrolidone ([2]; in words): Poorly soluble
- Solubility in propylene glycol ([2]; in words): Poorly soluble
- Solubility in water ([2]; in words): Insoluble
- DL 50 intraperitoneal [7]: 500 mg/kg
- DL 50 oral [7]: 1500 mg/kg
